Measured values reported in patent US6821980B1, “Substituted 5-benzyl-2,4-diaminopyrimidines” (Basilea Pharmaceutica AG, priority 1999, dated 2004).
≈ marks a conversion by molar mass, not a printed value. Where two headings read alike, the source gives them in different places.

How the values were obtained:
[1] = system: Staphylococcus aureus 101; test: MIC against Staphylococcus aureus 101; format: cell-based; conditions: Staphylococcus aureus 101, MRSA- and trimethoprim-resistant, clinical isolate; for MIC: read-out: MIC Sa101
[2] = target: purified DHFR of strain 157/4696 of Staphylococcus aureus (Staphylococcus aureus, UniProt P13955); test: biochemical
purified DHFR of strain 157/4696 of Staphylococcus aureus, sequence (P13955 whole entry): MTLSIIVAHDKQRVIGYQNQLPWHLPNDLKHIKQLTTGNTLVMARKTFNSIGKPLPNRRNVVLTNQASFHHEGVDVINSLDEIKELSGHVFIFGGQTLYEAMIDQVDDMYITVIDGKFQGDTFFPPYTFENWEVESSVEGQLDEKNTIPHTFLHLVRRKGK

[3] = target: T1, purified DHFR of strain Sp1/1 of Streptococcus pneumoniae (Streptococcus pneumoniae serotype 4, UniProt Q54801); format: biochemical; conditions: IC50 against purified DHFR of strain Sp1/1
T1 sequence (Q54801 1-168 I100L): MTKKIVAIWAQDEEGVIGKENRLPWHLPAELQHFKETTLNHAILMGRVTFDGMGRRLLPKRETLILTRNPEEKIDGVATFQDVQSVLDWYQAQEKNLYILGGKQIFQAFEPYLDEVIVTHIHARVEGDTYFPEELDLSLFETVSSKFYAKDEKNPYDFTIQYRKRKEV

[4] = system: Streptococcus pneumoniae 1/1; test: MIC against Streptococcus pneumoniae 1/1; format: cell-based; conditions: Streptococcus pneumoniae 1/1, trimethoprim- and penicillin-resistant, serotype 6, clinical isolate; for MIC: read-out: MIC Sp1/1
[5] = Table 2, IC50 against purified DHFR of strain 157/4696 (highly trimethoprim-resistant; clinical isolate), read-out: DHFR Sa1

In the case of CCOc1cc(Cc2cnc(N)nc2N)cc(OCC)c1-c1ccc(CN2CCCC2)c(F)c1 [Example 04-aa, 5-(2,6-Diethoxy-3′-fluoro-4′-pyrrolidin-1-ylmethyl-biphenyl-4-ylmethyl)-pyrimidine-2,4-diamine], the MIC ([1]; Table 2) is reported as 8 µg/mL (≈ 17.2 µM), the IC50 [2] is reported as 1800 nM and the IC50 ([3]; Table 2) is reported as 330 nM. For the same molecule, the MIC ([4]; Table 2) was 8 µg/mL (≈ 17.2 µM).

Work on CCOc1cc(Cc2cnc(N)nc2N)cc(OCC)c1-c1ccc(C)c(N)c1 [Example 02-ad, 5-(3′-Amino-2,6-diethoxy-4′-methyl-biphenyl-4-ylmethyl)-pyrimidine-2,4-diamine] yielded an MIC ([1]; Table 2) of 8 µg/mL (≈ 20.3 µM), an IC50 [2] of 2000 nM and an IC50 ([3]; Table 2) of 85 nM. For the same molecule, the MIC ([4]; Table 2) was 4 µg/mL (≈ 10.2 µM).

CCOc1cc(Cc2cnc(N)nc2N)cc(OCC)c1-c1ccc(NC)cc1 [Example 04-ab, 5-(2,6-Diethoxy-4′-methylamino-biphenyl-4-ylmethyl)-pyrimidine-2,4-diamine] gave an MIC ([1]; Table 2) of 8 µg/mL (≈ 20.3 µM), an IC50 [2] of 1400 nM and an IC50 ([3]; Table 2) of 120 nM. For the same molecule, the MIC ([4]; Table 2) was 4 µg/mL (≈ 10.2 µM).

With CCOc1cc(Cc2cnc(N)nc2N)cc(OCC)c1-c1ccco1 [Example 02-o, 5-(3,5-Diethoxy-4-furan-2-yl-benzyl)-pyrimidine-2,4-diamine] the MIC ([1]; Table 2) was 4 µg/mL (≈ 11.3 µM), the IC50 [2] was 2200 nM and the IC50 ([3]; Table 2) was 100 nM. It also gave an MIC ([4]; Table 2) of 4 µg/mL (≈ 11.3 µM).

For CCOc1cc(Cc2cnc(N)nc2N)cc(OS(=O)(=O)CC(C)C)c1-c1ccc(NCCO)cc1 [Example 36-e, 2-Methyl-propane-1-sulphonic acid 4-(2,4-diamino-pyrimidin-5-ylmethyl)-6-ethoxy-4′-(2-hydroxy-ethylamino)-biphenyl-2-yl ester], the MIC ([1]; Table 2) was 4 µg/mL (≈ 7.76 µM), the IC50 [2] was 250 nM and the IC50 ([3]; Table 2) was 2.1 nM. For the same molecule, the MIC ([4]; Table 2) was 0.5 µg/mL (≈ 0.97 µM).

Work on CCOc1cc(Cc2cnc(N)nc2N)cc(OS(=O)(=O)CC)c1-c1ccc(O)cc1 [Example 15-b, Ethanesulphonic acid 4-(2,4-diamino-pyrimidin-5-ylmethyl)-6-ethoxy-4′-hydroxy-biphenyl-2-yl ester] yielded an MIC ([1]; Table 2) of 4 µg/mL (≈ 9 µM), an IC50 [2] of 180 nM and an IC50 ([3]; Table 2) of 23 nM. The MIC ([4]; Table 2) was 2 µg/mL (≈ 4.5 µM).

In the case of CCOc1cc(Cc2cnc(N)nc2N)cc(OS(=O)(=O)N(C)C)c1-c1ccc(S(C)(=O)=O)cc1 [Example 60-, Dimethylsulphamic acid 4-(2,4-diamino-pyrimidin-5-ylmethyl)-6-ethoxy-4′-methanesulphonyl-biphenyl-2-yl ester], the MIC ([1]; Table 2) is reported as 4 µg/mL (≈ 7.67 µM), the IC50 [2] is reported as 280 nM and the IC50 ([3]; Table 2) is reported as 88 nM. For the same molecule, the MIC ([4]; Table 2) was 8 µg/mL (≈ 15.3 µM).

For CCOc1cc(Cc2cnc(N)nc2N)cc(OS(=O)(=O)N(C)C2CC2)c1-c1cccc(N)c1 [Example 19-g, N-Cclopropyl-N-methyl-sulphamic acid 3′-amino-4-(2,4-diamino-Ryrimidin-5-ylmethyl)-6-ethoxy-biphenyl-2-yl ester], the MIC ([1]; Table 2) was 1 µg/mL (≈ 2.06 µM), the IC50 [2] was 56 nM and the IC50 ([3]; Table 2) was 6.8 nM. It also gave an MIC ([4]; Table 2) of 1 µg/mL (≈ 2.06 µM).

CCOc1cc(Cc2cnc(N)nc2N)cc(OCC)c1-c1cccnc1 [Example 02-p, 5-(3,5-Diethoxy-4-pyridin-3-yl-benzyl)-pyrimidine-2,4-diamine] was tested, and the MIC ([1]; Table 2) was 8 µg/mL (≈ 21.9 µM), the IC50 [2] was 2200 nM and the IC50 ([3]; Table 2) was 100 nM. For the same molecule, the MIC ([4]; Table 2) was 4 µg/mL (≈ 10.9 µM).

In the case of CCOc1cc(Cc2cnc(N)nc2N)cc(OC(C)C)c1-c1ccc(O)cc1 [Example 08-m, 4′-(2,4-diamino-pyrimidin-5-ylmethyl)-6′-ethoxy-2′-isopropoxy-biphenyl-4-ol], the MIC ([1]; Table 2) is reported as 8 µg/mL (≈ 20.3 µM), the IC50 [2] is reported as 860 nM and the IC50 ([3]; Table 2) is reported as 65 nM. The MIC ([4]; Table 2) was 4 µg/mL (≈ 10.1 µM).

For CCOc1cc(Cc2cnc(N)nc2N)cc(OS(=O)(=O)C(C)C)c1-c1ccc(N)c(C)c1 [Example 33e, Propane-2-sulphonic acid 4′-amino-4-(2,4-diamino-pyrimidin-5-ylmethyl)-6-ethoxy-3′-methyl-biphenyl-2-yl ester], the MIC ([1]; Table 1) was 1 µg/mL (≈ 2.12 µM), the IC50 [2] was 200 nM and the IC50 ([3]; Table 1) was 19 nM. For the same molecule, the MIC ([4]; Table 1) was 1 µg/mL (≈ 2.12 µM).

CCOc1cc(Cc2cnc(N)nc2N)cc(OS(=O)(=O)C(C)C)c1-c1ccc(N)c(F)c1 [Example 33-b, Propane-2-sulphonic acid 4′-amino-4-(2,4-diamino-pyrimidin-5-ylmethyl)-6-ethoxy-3′-fluoro-4-ylmethyl-biphenyl-2-yl ester] showed an MIC ([1]; Table 2) of 2 µg/mL (≈ 4.21 µM), an IC50 [2] of 260 nM and an IC50 ([3]; Table 2) of 14 nM. The MIC ([4]; Table 2) was 1 µg/mL (≈ 2.1 µM).

In the case of CCOc1cc(Cc2cnc(N)nc2N)cc(OC2CCC(CC#N)C2)c1-c1ccc(O)cc1 (centres unmarked) [Example 08-w, {3-[4-(2,4-Diamino-pyhmidin-5-ylmethyl)-6-ethoxy-4′-hydroxy-biphenyl-2-yloxy]-cyclopentyl}-acetonitrile], the MIC ([1]; Table 2) is reported as 8 µg/mL (≈ 17.4 µM), the IC50 [2] is reported as 920 nM and the IC50 ([3]; Table 2) is reported as 21 nM. It also gave an MIC ([4]; Table 2) of 4 µg/mL (≈ 8.7 µM).

With CCCS(=O)(=O)Oc1cc(Cc2cnc(N)nc2N)cc(OCC)c1-c1ccc(F)c(N)c1 [Example 32-c] the “MIC Sa101” value ([1]; Table 2) was 4 µg/mL (≈ 8.41 µM), the IC50 [2, 5] was 130 nM and the IC50 ([3]; Table 2) was 6.1 nM. For the same molecule, the “MIC Sp1/1” value ([4]; Table 2) was 1 µg/mL (≈ 2.1 µM).

CCOc1cc(Cc2cnc(N)nc2N)cc(OCC)c1-c1cccc(O)c1 [Example 05-d, 4′-(2,4-Diamino-pyrimidin-5-ylmethyl)-2′,6′-diethoxy-biphenyl-3-ol] gave an MIC ([1]; Table 2) of 4 µg/mL (≈ 10.5 µM), an IC50 [2] of 3100 nM and an IC50 ([3]; Table 2) of 70 nM. The MIC ([4]; Table 2) was 2 µg/mL (≈ 5.26 µM).

In the case of CCOc1cc(Cc2cnc(N)nc2N)cc(OS(=O)(=O)N(C)C)c1-c1ccc(N)c(C#N)c1 [Example 43-c, Dimethylsulphamic acid 4′-amino-3′-cyano-4-(2,4-diamino-gvrimidin-5-ylmethyl)-6-ethoxy-biphenyl-2-yl ester], the MIC ([1]; Table 2) is reported as 2 µg/mL (≈ 4.14 µM), the IC50 [2] is reported as 160 nM and the IC50 ([3]; Table 2) is reported as 24 nM. It also gave an MIC ([4]; Table 2) of 2 µg/mL (≈ 4.14 µM).

For CCCS(=O)(=O)Oc1cc(Cc2cnc(N)nc2N)cc(OCC)c1-c1ccc(CN(C)C)c(N)c1 [Example 32-g, Propane-1-sulphonic acid 3′-amino-4-(2,4-diamino-pyrimidin-5-ylmethyl)-6-ethoxy-4′-dimethylaminomethyl-4-ylmethyl-biphenyl-2-yl ester], the “MIC Sa101” value ([1]; Table 2) was 8 µg/mL (≈ 15.5 µM), the IC50 [2, 5] was 68 nM and the IC50 ([3]; Table 2) was 75 nM. For the same molecule, the “MIC Sp1/1” value ([4]; Table 2) was 4 µg/mL (≈ 7.77 µM).

In the case of CCOc1cc(Cc2cnc(N)nc2N)cc(OS(=O)(=O)CC(C)(C)C)c1-c1ccc(OC)c(N)c1 [Example 37-b, 2,2-Dimethyl-propane-1-sulphonic acid 3′-amino-4-(2,4-diamino-pyrimidin-5-ylmethyl)-6-ethoxy-4′-methoxy-biphenyl-2-yl ester], the MIC ([1]; Table 2) is reported as 4 µg/mL (≈ 7.76 µM), the IC50 [2] is reported as 260 nM and the IC50 ([3]; Table 2) is reported as 1.7 nM. It also gave an MIC ([4]; Table 2) of 0.25 µg/mL (≈ 0.485 µM).

In the case of CCOc1cc(Cc2cnc(N)nc2N)cc(OCC)c1-c1ccc(OC)c(N)c1 [Example 04-i, 5-(3′-Amino-2,6-diethoxy-4′-methoxy-biphenyl-4-ylmethyl)-pyrimidine-2,4-diamine], the MIC ([1]; Table 2) is reported as 8 µg/mL (≈ 19.5 µM), the IC50 [2] is reported as 1200 nM and the IC50 ([3]; Table 2) is reported as 43 nM. The MIC ([4]; Table 2) was 4 µg/mL (≈ 9.77 µM).

Work on CCOc1cc(Cc2cnc(N)nc2N)cc(OS(=O)(=O)N(C)C)c1-c1ccc2[nH]ccc2c1 [Example 43-d, Dimethylsulphamic acid 5-(2,4-diamino-pyrimidin-5-ylmethyl)-3-ethoxy-2-(1H-indol-5-yl)-phenyl ester] yielded an MIC ([1]; Table 2) of 1 µg/mL (≈ 2.07 µM), an IC50 [2] of 180 nM and an IC50 ([3]; Table 2) of 42 nM. It also gave an MIC ([4]; Table 2) of 1 µg/mL (≈ 2.07 µM).

CCOc1cc(Cc2cnc(N)nc2N)cc(OCC)c1-c1ccc(N)c(C)c1 [Example 04-f, 5-(4′-Amino-2,6-diethoxy-3′-methyl-biphenyl-4ylmethyl)-pyximidine-2,4-diamine] gave an MIC ([1]; Table 2) of 4 µg/mL (≈ 10.2 µM), an IC50 [2] of 1500 nM and an IC50 ([3]; Table 2) of 55 nM. The MIC ([4]; Table 2) was 2 µg/mL (≈ 5.08 µM).

With CCOc1cc(Cc2cnc(N)nc2N)cc(OS(=O)(=O)N(C)CC)c1-c1cc(N)cc(F)c1 [Example 29-c, N-Ethyl-N-methyl-sulphamic acid 3′-amino-4-(2,4-diamino-pyrimidin-5-ylmethyl)-6-ethoxy-5′-fluoro-biphenyl-2-yl ester] the MIC ([1]; Table 2) was 2 µg/mL (≈ 4.08 µM), the IC50 [2] was 170 nM and the IC50 ([3]; Table 2) was 5.2 nM. It also gave an MIC ([4]; Table 2) of 2 µg/mL (≈ 4.08 µM).

CCOc1cc(Cc2cnc(N)nc2N)cc(OC(C)C)c1-c1ccc(OC)cc1 [Example 09-f, 5-(2-Ethoxy-6-isopropopy-4′-methoxy-biphenyl-4-ylmethyl)-pyrimidine-2,4-diamine] gave an MIC ([1]; Table 2) of 8 µg/mL (≈ 19.6 µM), an IC50 [2] of 1900 nM and an IC50 ([3]; Table 2) of 140 nM. It also gave an MIC ([4]; Table 2) of 8 µg/mL (≈ 19.6 µM).

Molecule CCOc1cc(Cc2cnc(N)nc2N)cc(OS(=O)(=O)C(C)C)c1-c1ccc(OC)cc1 [Example 16-c, Propane-2-sulphonic acid 4-(2,4-diamino-Ryimidin-5-ylmethyl)-6-ethoxy-4′-methoxy-biphenyl-2-yl ester] has an MIC ([1]; Table 2) of 2 µg/mL (≈ 4.23 µM), an IC50 [2] of 260 nM and an IC50 ([3]; Table 2) of 18 nM. It also gave an MIC ([4]; Table 2) of 2 µg/mL (≈ 4.23 µM).

CCOc1cc(Cc2cnc(N)nc2N)cc(OC2CCC2)c1-c1cccc(N)c1 [Example 07-e, 5-(3′-Amino-6-qdobutoxy-2-ethoxy-biphenyl-4-ylmethyl)-pyrimidine-2,4-diamine] was tested, and the MIC ([1]; Table 2) was 4 µg/mL (≈ 9.86 µM), the IC50 [2] was 640 nM and the IC50 ([3]; Table 2) was 28 nM. It also gave an MIC ([4]; Table 2) of 1 µg/mL (≈ 2.47 µM).

With CCOc1cc(Cc2cnc(N)nc2N)cc(OS(=O)(=O)CC(C)(C)C)c1-c1ccc(O)cc1 [Example 15-h, 2,2-Dimethyl-propane-1-sulphonic acid 4-(2,4-diamino-pyrimidin-5-ylmethyl)-6-ethoxy-4′-hydroxa-biphenyl-2-yl ester] the MIC ([1]; Table 2) was 4 µg/mL (≈ 8.22 µM), the IC50 [2] was 920 nM and the IC50 ([3]; Table 2) was 4.1 nM. For the same molecule, the MIC ([4]; Table 2) was 0.25 µg/mL (≈ 0.514 µM).
